Key:
Assay in all cases: NCI five-dose SRB growth assay
Assay type in all cases: cell-based
CCRF-CEM = details: Homo sapiens; CCRF-CEM (Leukemia), 48 h
HL-60(TB) = details: Homo sapiens; HL-60(TB) (Leukemia), 48 h
K-562 = details: Homo sapiens, K562; K-562 (Leukemia), 48 h
MOLT-4 = details: Homo sapiens; MOLT-4 (Leukemia), 48 h
A549/ATCC = details: Homo sapiens; A549/ATCC (Non-Small Cell Lung Cancer), 48 h
HOP-62 = details: Homo sapiens; HOP-62 (Non-Small Cell Lung Cancer), 48 h
NCI-H226 = details: Homo sapiens; NCI-H226 (Non-Small Cell Lung Cancer), 48 h
HOP-92 = details: Homo sapiens; HOP-92 (Non-Small Cell Lung Cancer), 48 h
NCI-H23 = details: Homo sapiens; NCI-H23 (Non-Small Cell Lung Cancer), 48 h
NCI-H322M = details: Homo sapiens; NCI-H322M (Non-Small Cell Lung Cancer), 48 h
NCI-H522 = details: Homo sapiens; NCI-H522 (Non-Small Cell Lung Cancer), 48 h
HCC-2998 = details: Homo sapiens; HCC-2998 (Colon Cancer), 48 h
HCT-116 = details: Homo sapiens; HCT-116 (Colon Cancer), 48 h
HCT-15 = details: Homo sapiens; HCT-15 (Colon Cancer), 48 h
SW-620 = details: Homo sapiens; SW-620 (Colon Cancer), 48 h
SF-268 = details: Homo sapiens; SF-268 (CNS Cancer), 48 h
U251 = details: Homo sapiens, U-251; U251 (CNS Cancer), 48 h
LOX IMVI = details: Homo sapiens; LOX IMVI (Melanoma), 48 h
MALME-3M = details: Homo sapiens; MALME-3M (Melanoma), 48 h
M14 = details: Homo sapiens; M14 (Melanoma), 48 h
MDA-MB-435 = details: Homo sapiens; MDA-MB-435 (Melanoma), 48 h
SK-MEL-2 = details: Homo sapiens; SK-MEL-2 (Melanoma), 48 h
UACC-257 = details: Homo sapiens; UACC-257 (Melanoma), 48 h
UACC-62 = details: Homo sapiens; UACC-62 (Melanoma), 48 h
OVCAR-8 = details: Homo sapiens; OVCAR-8 (Ovarian Cancer), 48 h
NCI/ADR-RES = details: Homo sapiens; NCI/ADR-RES (Ovarian Cancer), 48 h
786-0 = details: Homo sapiens; 786-0 (Renal Cancer), 48 h
ACHN = details: Homo sapiens; ACHN (Renal Cancer), 48 h
RXF 393 = details: Homo sapiens; RXF 393 (Renal Cancer), 48 h
SN12C = details: Homo sapiens; SN12C (Renal Cancer), 48 h
UO-31 = details: Homo sapiens; UO-31 (Renal Cancer), 48 h
PC-3 = details: Homo sapiens; PC-3 (Prostate Cancer), 48 h
DU-145 = details: Homo sapiens; DU-145 (Prostate Cancer), 48 h
MCF7 = details: Homo sapiens; MCF7 (Breast Cancer), 48 h
HS 578T = details: Homo sapiens; HS 578T (Breast Cancer), 48 h
BT-549 = details: Homo sapiens; BT-549 (Breast Cancer), 48 h
MDA-MB-468 = details: Homo sapiens; MDA-MB-468 (Breast Cancer), 48 h
SNB-75 = details: Homo sapiens; SNB-75 (CNS Cancer), 48 h
SK-OV-3 = details: Homo sapiens; SK-OV-3 (Ovarian Cancer), 48 h

Compound: O=C(O)c1cn(C2CC2)c2cc(N3CCN(S(=O)(=O)c4ccc(Cl)c(Cl)c4)CC3)c(F)cc2c1=O [Compound 3b]
- GI50 (CCRF-CEM): 2610 nM
- GI50 (HL-60(TB)): 2040 nM
- GI50 (K-562): 3920 nM
- GI50 (MOLT-4): 4000 nM
- GI50 (A549/ATCC): 3080 nM
- GI50 (HOP-62): 4770 nM
- GI50 (NCI-H226): 3580 nM
- GI50 (HOP-92): 1540 nM
- GI50 (NCI-H23): 2900 nM
- GI50 (NCI-H322M): 3240 nM
- GI50 (NCI-H522): 1990 nM
- GI50 (HCC-2998): 4470 nM
- GI50 (HCT-116): 3860 nM
- GI50 (HCT-15): 3300 nM
- GI50 (SW-620): 4050 nM
- GI50 (SF-268): 4770 nM
- GI50 (U251): 3330 nM
- GI50 (LOX IMVI): 1440 nM
- GI50 (MALME-3M): 2300 nM
- GI50 (M14): 4060 nM
- GI50 (MDA-MB-435): 2970 nM
- GI50 (SK-MEL-2): 3160 nM
- GI50 (UACC-257): 2480 nM
- GI50 (UACC-62): 1750 nM
- GI50 (OVCAR-8): 3330 nM
- GI50 (NCI/ADR-RES): 4010 nM
- GI50 (786-0): 4020 nM
- GI50 (ACHN): 3100 nM
- GI50 (RXF 393): 2980 nM
- GI50 (SN12C): 2970 nM
- GI50 (UO-31): 2580 nM
- GI50 (PC-3): 2460 nM
- GI50 (DU-145): 4310 nM
- GI50 (MCF7): 2840 nM
- GI50 (HS 578T): 4260 nM
- GI50 (BT-549): 2980 nM
- GI50 (MDA-MB-468): 2250 nM

Compound: CCn1cc(C(=O)O)c(=O)c2cc(F)c(N3CCN(S(=O)(=O)c4cccc5ccccc45)CC3)cc21 [Compound 7a]
- GI50 (CCRF-CEM): 3670 nM
- GI50 (HL-60(TB)): 2580 nM
- GI50 (K-562): 3930 nM
- GI50 (MOLT-4): 4460 nM
- GI50 (A549/ATCC): 2870 nM
- GI50 (HOP-62): 4600 nM
- GI50 (NCI-H226): 3710 nM
- GI50 (HOP-92): 1250 nM
- GI50 (NCI-H23): 3130 nM
- GI50 (NCI-H322M): 2600 nM
- GI50 (NCI-H522): 2780 nM
- GI50 (HCC-2998): 4260 nM
- GI50 (HCT-116): 3880 nM
- GI50 (HCT-15): 3150 nM
- GI50 (SW-620): 3570 nM
- GI50 (SF-268): 4390 nM
- GI50 (SNB-75): 1890 nM
- GI50 (U251): 3290 nM
- GI50 (LOX IMVI): 1630 nM
- GI50 (MALME-3M): 2830 nM
- GI50 (M14): 4370 nM
- GI50 (MDA-MB-435): 3130 nM
- GI50 (SK-MEL-2): 3550 nM
- GI50 (UACC-257): 2720 nM
- GI50 (UACC-62): 2250 nM
- GI50 (OVCAR-8): 3090 nM
- GI50 (NCI/ADR-RES): 3200 nM
- GI50 (SK-OV-3): 3110 nM
- GI50 (786-0): 4500 nM
- GI50 (ACHN): 2880 nM
- GI50 (RXF 393): 3190 nM
- GI50 (SN12C): 2590 nM
- GI50 (UO-31): 2210 nM
- GI50 (PC-3): 2660 nM
- GI50 (DU-145): 3970 nM
- GI50 (MCF7): 2720 nM
- GI50 (HS 578T): 2680 nM
- GI50 (BT-549): 3700 nM
- GI50 (MDA-MB-468): 2520 nM

Compound: CCn1cc(C(=O)O)c(=O)c2cc(F)c(N3CCN(S(=O)(=O)c4ccc(Cl)cc4Cl)CC3)cc21 [Compound 2a]
- GI50 (CCRF-CEM): 3030 nM
- GI50 (HL-60(TB)): 2220 nM
- GI50 (K-562): 4000 nM
- GI50 (MOLT-4): 3550 nM
- GI50 (A549/ATCC): 2890 nM
- GI50 (HOP-62): 3080 nM
- GI50 (NCI-H226): 2600 nM
- GI50 (HOP-92): 1220 nM
- GI50 (NCI-H23): 2330 nM
- GI50 (NCI-H322M): 2860 nM
- GI50 (NCI-H522): 1810 nM
- GI50 (HCC-2998): 2290 nM
- GI50 (HCT-116): 3560 nM
- GI50 (HCT-15): 2820 nM
- GI50 (SW-620): 3910 nM
- GI50 (SF-268): 3860 nM
- GI50 (U251): 3300 nM
- GI50 (LOX IMVI): 1480 nM
- GI50 (MALME-3M): 1950 nM
- GI50 (M14): 3240 nM
- GI50 (MDA-MB-435): 1970 nM
- GI50 (SK-MEL-2): 2750 nM
- GI50 (UACC-257): 2650 nM
- GI50 (UACC-62): 1610 nM
- GI50 (OVCAR-8): 3300 nM
- GI50 (NCI/ADR-RES): 3280 nM
- GI50 (SK-OV-3): 3000 nM
- GI50 (786-0): 3190 nM
- GI50 (ACHN): 2620 nM
- GI50 (RXF 393): 2080 nM
- GI50 (SN12C): 2770 nM
- GI50 (UO-31): 2200 nM
- GI50 (PC-3): 2430 nM
- GI50 (DU-145): 2810 nM
- GI50 (MCF7): 2950 nM
- GI50 (HS 578T): 2530 nM
- GI50 (BT-549): 2640 nM
- GI50 (MDA-MB-468): 1980 nM

Reference: patent EP2987533B1, “7-substituted piperazin-1-yl fluoroquinolone compounds, their use in the treatment of cancer, pharmaceutical compositions and a method for preparation” (priority 2014, dated 2016)
